Patent US20130123494A1, “COMPLEX COMPOUND AND OPTICAL RECORDING MEDIUM CONTAINING SAME” (KH NEOCHEM CO., LTD., priority 2010, published 2013)

Key:
Assay type in all cases: physicochemical
[1] = Lightfastness test of thin films; conditions: thin film on glass plate, UV fluorescent lamps 15 W/m^2, 45° C., 10 hours
Excerpt: Thin films of Complex Compounds (2) to (5), (7), (9) to (11), (13) to (21), (24), (26), (28), (30), (31), and (33) were respectively obtained similarly to the film-forming test except that a glass plate (manufactured by Taiyu Kizai Co., Ltd.; 2 cm×2 cm; thickness: 2 mm) was used as the substrates instead of the plate made of polycarbonate resin. Using a dewpanel light control weather meter DPWL-5R, manufactured by Suga Test Instruments Co., Ltd., which was equipped with ultraviolet fluorescent lamps (SUGA-FS40, manufactured by Suga Test Instruments Co., Ltd., having a peak wavelength of 313 nm and an illuminance distribution of 282 nm to 373 nm), light was irradiated on the thin films with an amount of light of 15 W/m^2 at 45° C. for 10 hours. Ultraviolet-visible absorption spectra of the thin film before and after the lightfastness test were measured using a spectrophotometer.
Here, the absorption maximum wavelength after lightfastness test denotes an absorption maximum wavelength in the absorption spectrum after the lightfastness test.

[2] = Test of storage stability in solution; conditions: 13 mg in 1 mL TFP, brown bottle, 25° C., 3 days; 1250-fold diluted for measurement
Protocol: Each of 13 mg of Complex Compounds (2) to (5), (7), (9) to (11), (13) to (21), (24), (26), (28), (30), (31), and (33) was dissolved in 1 mL of TFP, which was filtered with a filter made of TEFLON (registered trademark) (manufactured by Whatman, having a pore diameter of 0.20 μm), and solutions of Complex Compounds (2) to (5), (7), (9) to (11), (13) to (21), (24), (26), (28), (30), (31), and (33) were respectively obtained. Each of the obtained solutions was transferred to a brown bottle with a lid and stored at 25° C. for 3 days. Before and after the storage stability test, using a spectrophotometer, 1250-fold diluted solutions of Complex Compounds (2) to (5), (7), (9) to (11), (13) to (21), (24), (26), (28), (30), (31), and (33), respectively, were measured for their ultraviolet-visible absorption spectra. […] Here, the absorption maximum wavelength after the storage stability test is the absorption maximum wavelength in the absorption spectrum after the storage stability test.

[3] = Moisture- and heat-resistances test of thin films; conditions: thin film, 80° C., relative humidity 80%, 100 hours
Protocol: Similarly to the film-forming test, thin films of Complex Compounds (2) to (5), (7), (9) to (11), (13) to (21), (24), (26), (28), (30), (31), and (33) were respectively obtained. Using a constant temperature and humidity chamber, KHWII-40HP, manufactured by Satake Chemical Equipment Mfg Ltd., the thin films were exposed in the atmosphere having a temperature of 80° C. and a relative humidity of 80% for 100 hours. Ultraviolet-visible absorption spectra of the thin films before and after the moisture- and heat-resistances test were measured using a spectrophotometer. […] Here, the absorption maximum wavelength after the moisture- and heat-resistances test denotes the absorption maximum wavelength in an absorption spectrum after the moisture- and heat-resistances test.

[4] = Water resistance test of thin films
Protocol: Similarly to the film-forming test, thin films of Complex Compounds (2), (3), (13), (19), and (20) were respectively obtained. Ultraviolet-visible absorption spectra of the thin films were measured using a spectrophotometer before and after the water resistance test in which the thin films were immersed in water at 75° C. for 30 minutes. […] Here, the absorption maximum wavelength after the water resistance test denotes the absorption maximum wavelength in the absorption spectrum after the water resistance test. […] Here, the water resistance test is a test under severe conditions, and a thin film having the ratio (I^d/I^d0) of 0.5 or greater has favorable water resistance.

[5] = thin film immersed in water at 75° C. for 30 minutes

CCCCn1c([O-])c(/C=N/[N-]c2nnnn2-c2ccccc2)c(C)c(C#N)c1=O.CCCCn1c([O-])c(/C=N/[N-]c2nnnn2-c2ccccc2)c(C)c(C#N)c1=O.CCCCn1c([O-])c(/C=N/[N-]c2nnnn2-c2ccccc2)c(C)c(C#N)c1=O.CCCCn1c([O-])c(/C=N/[N-]c2nnnn2-c2ccccc2)c(C)c(C#N)c1=O.Fc1cccc(-[n+]2ccc(-c3cc[n+](-c4cccc(F)c4)cc3)cc2)c1.[Co+3].[Co+3] [Complex Compound (2)]
I^a/I^a0 (absorbance ratio at absorption maximum after/before lightfastness test) [1]: 0.92
I^c/I^c0 (absorbance ratio at absorption maximum after/before storage stability test) [2]: 1.00
Δλmax(c) (change in absorption maximum wavelength) [2]: 0 nm
I^b/I^b0 (absorbance ratio at absorption maximum after/before moisture- and heat-resistances test) [3]: 0.97
Δλmax(b) (change in absorption maximum wavelength) [3]: 0.5 nm
I^d/I^d0 (absorbance ratio at absorption maximum after/before water resistance test) [4, 5]: 0.73
Δλmax (d) (change in absorption maximum wavelength) [4, 5]: 0.5 nm
Water resistance of thin film (in words) ([4]; thin film in water at 75° C. for 30 minutes): superior water resistance
